Literature values as cited in patent US12329856B2, “Crosslinked hyaluronic acid composition with local anesthetics” (BIOPOLIMERI S.R.L., priority 2021, dated 2025).

Details: tabulated in the state of the art

| pKa^T (thermodynamic pKa) | Structure (SMILES) |
| --- | --- |
| 7.6 | CCCNC(C)C(=O)Nc1c(C)csc1C(=O)OC (centres unmarked) [articaine] |
| 7.8 | Cc1cccc(C)c1NC(=O)C1CCCCN1C (centres unmarked) [mepivacaine] |
